As a reminder, the IC50 is the concentration needed to halve the response being measured. Read a high IC50 as a need for much substance. A word on the inhibition: it is how much of the control response was suppressed. Low values mean a weak effect, high ones a strong effect.

The subject of one test is Colo205. As to the kind of experiment: Cell survival assay (SRB), Colo205. It is filed as cell-based. The note with it: Colo205 cells, 3 days. Here is the method:
(§1) Cell Survival Assay: Standard Pharmacological Test Procedure. […] Compounds are incubated with cells for 3 days.

For another test, the system named is KB cells. The experiment in a line: cells. The test is classed as cell-based. The note with it: 3 days, SRB. Here is the method:
as §1

The subject of another test is KB85. As to the kind of experiment: cells. The test is classed as cell-based. The note with it: for IC50: 3 days, SRB. Here is the method:
as §1

For the next test, the system named is KBV1. As to the kind of experiment: cells. The test is classed as cell-based. The settings on record: for IC50: 3 days, SRB; for inhibition at 3 µM: KB-V1, 3000 nM. Here is the method: as §1
Test [1] concerns bovine microtubule-associated protein (MAP)-rich tubulin. It is filed as biochemical. The note with it: 0.3 uM. An outline of the steps:
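This in vitro polymerization assay used bovine tubulin rich in microtubule-associated proteins, prepared at 1.5 mg/ml in GPEM (PEM buffer containing 1 mM GTP) and cleared by a 12,000×g spin. Tubulin solution (100 μl/well) was dispensed onto duplicate 10 μl test samples. Control wells held 0.3% DMSO. A SpectraMax Plus reader recorded turbidity at 340 nm every minute over 60 min at 24° C.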

A value given as a limit tells only on which side of the number the result lay.

For the compound `C/C(=C\[C@H](C(C)C)N(C)C(=O)[C@@H](NC(=O)[C@H](O)C(C)(C)c1ccccc1)C(C)(C)C)C(=O)O` [Example 108, (E,4S)-4-[{N-[(2R)-2-hydroxy-3-methyl-3-phenylbutanoyl]-3-methyl-L-valyl}(methyl)amino]-2,5-dimethyl-2-hexenoic acid], the IC50 with Colo205 (Homo sapiens, COLO 205, 72 h) was greater than 1 µM; in the test on KB cells (Homo sapiens, KB, 72 h), greater than 3 µM; in the test with KB85 (72 h), greater than 3 µM; with KBV1 (Homo sapiens, KB-V1, 72 h), greater than 3 µM. Also, in test [1], the “Tubulin Polym. % inhibition at 0.3 uM” value amounted to 21%.

`C=CCC(C(=O)N[C@H](C(=O)N(C)[C@H](/C=C(\C)C(=O)O)C(C)C)C(C)(C)C)C(C)(C)c1ccccc1` (stereo partly drawn) [Example 98, (E,4S)-4-[((2S)-3,3-dimethyl-2-{[3-methyl-2-allyl-3-phenylbutanoyl]amino}butanoyl)(methyl)amino]-2,5-dimethyl-2-hexenoic acid]: the IC50 in the test on Colo205 (Homo sapiens, COLO 205, 72 h) stood at 0.27 µM; with KB cells (Homo sapiens, KB, 72 h) it was 1.15 µM; with KB85 (72 h), 1.21 µM. In the test with KBV1, the “KBV1 % inhibition @6000” value was 42%@6000. In addition, the “Tubulin Polym. % inhibition at 0.3 uM” value in test [1] is listed as 63%.

For `C/C(=C\[C@H](C(C)C)N(C)C(=O)[C@@H](NC(=O)C(C(C)(C)c1ccccc1)S(C)(=O)=O)C(C)(C)C)C(=O)O` (stereo partly drawn) [Example 103, (E,4S)-4-[((2S)-3,3-dimethyl-2-{[3-methyl-2-methylsulfonyl-3-phenylbutanoyl]amino}butanoyl)(methyl)amino]-2,5-dimethyl-2-hexenoic acid], the IC50 in the test with Colo205 (Homo sapiens, COLO 205, 72 h) was 0.76 µM; in the test with KB cells (Homo sapiens, KB, 72 h) it was 1.75 µM; in the test with KB85 (72 h), 1.66 µM. In addition, the inhibition at 3 µM was 30% in the test with KB85 (3000 nM) and 5% in the test with KBV1 (Homo sapiens). Besides, the “Tubulin Polym. % inhibition at 0.3 uM” value in test [1] is 80%.

Turning to `CO[C@@H](C(=O)N[C@H](C(=O)N(C)[C@H](/C=C(\C)C(=O)O)C(C)C)C(C)(C)C)C(C)(C)c1ccccc1` [Example 106, (E,4S)-4-[{N-[(2R)-2-methoxy-3-methyl-3-phenylbutanoyl]-3-methyl-L-valyl}(methyl)amino]-2,5-dimethyl-2-hexenoic acid], the IC50 was determined as 0.93 µM with Colo205 (Homo sapiens, COLO 205, 72 h); 1.42 µM in the test with KB cells (Homo sapiens, KB, 72 h); 1.23 µM in the test with KB85 (72 h). Moreover, the inhibition at 3 µM in the test with KBV1 (Homo sapiens) is 22%. The “Tubulin Polym. % inhibition at 0.3 uM” value in test [1] came to 54%.

With “(E,4S)-4-[((2S)-2-{[(2S)-2-azido-3-methyl-3-phenylbutanoyl]amino}-3,3-dimethylbutanoyl)(methyl)amino]-2,5-dimethyl-2-hexenoic acid and (E,4S)-4-[((2S)-2-{[(2R)-2-azido-3-methyl-3-phenylbutanoyl]amino}-3,3-dimethylbutanoyl)(methyl)amino]-2,5-dimethyl-2-hexenoic acid [Example 94]”, the values for the 50% inhibitory concentration (IC50) in the test on Colo205, with KB cells and with KB85 were 0.46 µM, 1.3 µM and 1.33 µM, respectively. In the test on KBV1 (3000 nM), the “KBV1 % inhibition @ 3000 nM” value is on record as 30%(2). Also, the “Tubulin Polym. % inhibition at 0.3 uM” value in test [1] was found to be 73%.

In the case of `CN[C@H](C(=O)N[C@H](C(=O)N(C)[C@H](/C=C/c1nnn[nH]1)C(C)C)C(C)(C)C)C(C)(C)c1ccccc1` [Example 86, (2S)-N-[(1S,2E)-1-isopropyl-3-(1H-tetraazol-5-yl)-2-propenyl]-N,3,3-trimethyl-2-{[(2S)-3-methyl-2-(methylamino)-3-phenylbutanoyl]amino}butanamide], the IC50 with Colo205 (Homo sapiens, COLO 205, 72 h) was found to be 0.071 µM; in the test on KB cells (Homo sapiens, KB, 72 h) it was 1.15 µM; with KB85 (72 h), 1.82 µM. Further, the inhibition at 3 µM in the test on KBV1 (Homo sapiens) came to 5%. Also, in test [1], the “Tubulin Polym. % inhibition at 0.3 uM” value is 31%.

`C/C(=C\[C@H](C(C)C)N(C)C(=O)[C@@H](NC(=O)[C@@H](O)C(C)(C)c1ccccc1)C(C)(C)C)C(=O)O` [Example 107, (E,4S)-4-[{N-[(2S)-2-hydroxy-3-methyl-3-phenylbutanoyl]-3-methyl-L-valyl}(methyl)amino]-2,5-dimethyl-2-hexenoic acid]: the IC50 in the test with Colo205 (Homo sapiens, COLO 205, 72 h) was greater than 1 µM; with KB cells (Homo sapiens, KB, 72 h), greater than 3 µM; in the test with KB85 (72 h), greater than 3 µM; with KBV1 (Homo sapiens, KB-V1, 72 h), greater than 3 µM. Moreover, in test [1], the “Tubulin Polym. % inhibition at 0.3 uM” value came to 21%.

For `CN[C@H](C(=O)N[C@H](C(=O)N(C)[C@H](/C=C(\C)C(=O)NO)C(C)C)C(C)(C)C)C(C)(C)c1ccccc1` [Example 25, (E,4S)-4-[((2S)-3,3-dimethyl-2-{[(2S)-3-methyl-2-(methylamino)-3-phenylbutanoyl]amino}butanoyl)(methyl)amino]-N-hydroxy-2,5-dimethyl-2-hexenamide], the IC50 was 0.02 µM with Colo205 (Homo sapiens, COLO 205, 72 h); 0.039 µM in the test with KB cells (Homo sapiens, KB, 72 h); 0.227 µM with KB85 (72 h). Further, the inhibition at 3 µM with KBV1 (Homo sapiens) amounted to 7%. In test [1], the “Tubulin Polym. % inhibition at 0.3 uM” value amounted to 75%.

In the case of `CCOC(=O)/C(C)=C/[C@H](C(C)C)N(C)C(=O)[C@@H](NC(=O)C(OC)C(C)(C)c1ccccc1)C(C)(C)C` (stereo partly drawn) [Example 104, Ethyl (E,4S)-4-[{(2S)-2-[(2-methoxy-3-methyl-3-phenylbutanoyl)amino]-3,3-dimethylbutanoyl}(methyl)amino]-2,5-dimethyl-2-hexenoate], the IC50 in the test on Colo205 (Homo sapiens, COLO 205, 72 h) was greater than 1 µM; in the test with KB cells, 3 µM; in the test with KB cells (Homo sapiens, KB, 72 h) it was 1.73 µM; with KB85 (72 h), 2.13 µM; in the test on KB85 it was 3 µM; in the test with KBV1, 3 µM. Besides, the IC50 with KBV1 (Homo sapiens, KB-V1, 72 h) is 2.4 µM. Further, the “Tubulin Polym. % inhibition at 0.3 uM” value in test [1] is 38%.

Regarding `CCC(C(=O)N[C@H](C(=O)N(C)[C@H](/C=C(\C)C(=O)O)C(C)C)C(C)(C)C)C(C)(C)c1ccccc1` (stereo partly drawn) [Example 100, (E,4S)-4-[((2S)-3,3-dimethyl-2-{[3-methyl-2-ethyl-3-phenylbutanoyl]amino}butanoyl)(methyl)amino]-2,5-dimethyl-2-hexenoic acid], the IC50 with Colo205 (Homo sapiens, COLO 205, 72 h) worked out at 0.19 µM; in the test with KB cells (Homo sapiens, KB, 72 h) it was 0.957 µM; with KB85 (72 h), 1.15 µM; in the test on KBV1 (Homo sapiens, KB-V1, 72 h) it was 5.26 µM. Moreover, in test [1], the “Tubulin Polym. % inhibition at 0.3 uM” value is given as 54%.

For the compound `CSC(C(=O)N[C@H](C(=O)N(C)[C@H](/C=C(\C)C(=O)O)C(C)C)C(C)(C)C)C(C)(C)c1ccccc1` (stereo partly drawn) [Example 102, (E,4S)-4-[((2S)-3,3-dimethyl-2-{[3-methyl-2-methylsulfanyl-3-phenylbutanoyl]amino}butanoyl)(methyl)amino]-2,5-dimethyl-2-hexenoic acid], the IC50 in the test with Colo205 (Homo sapiens, COLO 205, 72 h) amounted to 0.28 µM; with KB cells (Homo sapiens, KB, 72 h), 0.693 µM; with KB85 (72 h), 1.15 µM. Further, the “KBV1 % inhibition @6000” value in the test on KBV1 is 40%@6000. In addition, the “Tubulin Polym. % inhibition at 0.3 uM” value in test [1] worked out at 79%.

As to `C/C(=C\[C@H](C(C)C)N(C)C(=O)[C@@H](NC(=O)C(Cc1ccccc1)C(C)(C)c1ccccc1)C(C)(C)C)C(=O)O` (stereo partly drawn) [Example 96, (E,4S)-4-[((2S)-3,3-dimethyl-2-{[3-methyl-2-benzyl-3-phenylbutanoyl]amino}butanoyl)(methyl)amino]-2,5-dimethyl-2-hexenoic acid], the IC50 worked out at 0.34 µM in the test with Colo205 (Homo sapiens, COLO 205, 72 h); 0.846 µM in the test on KB cells (Homo sapiens, KB, 72 h); 1.12 µM in the test with KB85 (72 h); 2.63 µM with KBV1 (Homo sapiens, KB-V1, 72 h). In the test on KBV1 (Homo sapiens), this compound had an inhibition at 3 µM of 11%. Besides, the “Tubulin Polym. % inhibition at 0.3 uM” value in test [1] was found to be 46%.

(Values after patent US7390910B2, “Compounds for treating tumors” (priority 2003, dated 2008).)
